Reference: PMC8416343, “A Facile Procedure for One-Pot Stable Conjugation of Two Proglucagon Cysteine-Containing Peptide Analogs” (Frontiers in Endocrinology, 2021)

Legend:
[1] = Hydrolysis of thiosuccinimide / chemical stability of linker and conjugates, LC-MS; details: for Time to complete hydrolysis of thiosuccinimide: pH 9.6, carbonate-diluted reaction mixture, LC-MS
human GLP-1R = biological target: T1, human GLP-1R (Homo sapiens, UniProt P43220); assay: GLP-1 receptor activation, cAMP response element-luciferase reporter in BHK cells; assay type: cell-based; details: for Statistical significance of EC50 difference at human GLP-1 receptor: between human GLP-1, peptide 4 and peptide 5, Student's unpaired t-test, n=6; for EC50: stably transfected BHK cells over-expressing human GLP-1R, CRE-luciferase, 3 h at 37°C, assay buffer with 1% ovalbumin, 12-point 3.5-fold dilution, n=6, kind of +/- not stated
T1 construct: expressed in transfected cells; host or cells: BHK cells (stably transfected, with CRE-firefly luciferase reporter)
T1 sequence (P43220 24-463): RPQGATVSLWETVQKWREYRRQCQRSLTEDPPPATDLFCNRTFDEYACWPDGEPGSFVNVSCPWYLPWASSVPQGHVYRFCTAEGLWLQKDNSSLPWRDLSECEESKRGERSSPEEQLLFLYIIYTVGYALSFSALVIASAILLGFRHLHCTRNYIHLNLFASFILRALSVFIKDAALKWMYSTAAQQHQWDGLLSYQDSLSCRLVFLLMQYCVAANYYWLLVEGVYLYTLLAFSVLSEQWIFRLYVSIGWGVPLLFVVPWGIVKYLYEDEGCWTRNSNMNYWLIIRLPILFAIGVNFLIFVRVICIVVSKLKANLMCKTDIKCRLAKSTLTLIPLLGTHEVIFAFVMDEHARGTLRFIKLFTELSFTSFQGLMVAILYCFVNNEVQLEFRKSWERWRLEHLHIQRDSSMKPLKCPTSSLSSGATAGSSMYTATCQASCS
Method: (§1) Receptor activation data was collected utilizing stably transfected BHK cells over-expressing either the human GLP-1R or GcgR and firefly luciferase reporter gene linked to the cAMP response element. The cells were maintained in continuous culture in DMEM supplemented with 10% HI FBS, 300 ug/mL hygromycin, and 500 ug/mL G418 at 37°C with 5% CO2. Cells were plated in the supplemented DMEM at 5,000 cells per well in 96 well poly-D-Lysine coated Corning BioCoat plates and incubated overnight at 37°C with 5% CO2. After the overnight incubation, the media was removed from the cell plates, washed once with DPBS, and 50uL of the assay buffer (DMEM without phenol red, 10 mM Hepes, 1x Glutamax, 1% ovalbumin, and 0.1% Pluronic F-68) was added to the plate. In a separate 96 well plate, the test compounds were serially diluted by 3.5-fold across the row of the plate to create a 12-point dilution curve. […] After the incubation, the assay plates were washed once in DPBS. Following the wash, 100 uL of DPBS was added to each well of the plates followed by 100 uL of the steadylite plus reagent (PerkinElmer). The assay plates were covered to protect from light, incubated at room temperature with shaking at 250 rpm for 30 minutes and read using a microtiter plate reader. The data was plotted using GraphPad Prism 9.0.1 with the nonlinear regression log(agonist) vs. response analysis to obtain the EC50 for each compound. Additionally, GraphPad Prism was used to complete the statistical analysis of the EC50 values with n=6 was using the Student’s unpaired t-test analysis.

human GcgR = biological target: T2, human GcgR (Homo sapiens, UniProt P47871); assay: Glucagon receptor activation, cAMP response element-luciferase reporter in BHK cells; assay type: cell-based; details: for Statistical significance of EC50 difference at human glucagon receptor: between peptide 4 and peptide 5, Student's unpaired t-test, n=6; for EC50: stably transfected BHK cells over-expressing human GcgR, CRE-luciferase, 3 h at 37°C, assay buffer with 1% ovalbumin, 12-point 3.5-fold dilution, n=6, kind of +/- not stated
T2 construct: expressed in transfected cells; host or cells: BHK cells (stably transfected, with CRE-firefly luciferase reporter)
T2 sequence (P47871 26-477): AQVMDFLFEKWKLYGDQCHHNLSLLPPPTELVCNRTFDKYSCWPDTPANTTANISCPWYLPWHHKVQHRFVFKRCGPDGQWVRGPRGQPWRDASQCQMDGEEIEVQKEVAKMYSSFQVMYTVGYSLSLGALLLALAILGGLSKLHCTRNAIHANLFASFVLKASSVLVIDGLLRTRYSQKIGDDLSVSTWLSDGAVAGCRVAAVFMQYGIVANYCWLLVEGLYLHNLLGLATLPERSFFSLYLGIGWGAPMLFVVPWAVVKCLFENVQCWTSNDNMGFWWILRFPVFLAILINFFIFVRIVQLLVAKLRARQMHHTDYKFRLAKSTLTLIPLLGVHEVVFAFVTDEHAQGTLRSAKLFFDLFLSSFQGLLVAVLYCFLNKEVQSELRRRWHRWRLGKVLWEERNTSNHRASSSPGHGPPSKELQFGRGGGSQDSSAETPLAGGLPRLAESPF
Method: as §1

[2] = test system: human GLP-1 and glucagon receptors; assay: Glucagon and GLP-1 receptor activation, both receptors together (summary statements); assay type: cell-based; details: heterodimers of glucagon and GLP-1 analogs; conclusion
Method: as §1, with “The data was plotted using GraphPad Prism 9.0.1 with the nonlinear regression log(agonist) vs. response analysis to obtain the EC50 for each compound. Additionally, GraphPad Prism was used to complete the statistical analysis of the EC50 values with n=6 was using the Student’s unpaired t-test analysis.” left out

[3] = pH 9.6

| SMILES | Stability of linker ([1]; pH range of 6.0-8.3, compared with the self-hydrolysable maleimido linker) | Statistical significance of EC50 difference at human GLP-1 receptor (human GLP-1R) | Potency in stimulating cAMP at GLP-1 receptors, in words (human GLP-1R; compared with native GLP-1, BHK cells, human GLP-1R) | EC50 (human GLP-1R) | Potency at human GCG receptor, in words (human GcgR; BHK cells, human GcgR, reduced versus native human glucagon, comparable between peptides 4 and 5) | Statistical significance of EC50 difference at human glucagon receptor (human GcgR) | EC50 (human GcgR) | GLP-1 receptor activity relative to glucagon [2] | Thiosuccinimide hydrolysis at pH 8.3 ([1]; pH 8.3, prolonged alkylation time) | Time to complete hydrolysis of thiosuccinimide ([1]; 37°C) | Time to complete hydrolysis of thiosuccinimide ([1]; room temperature) | Degradation of the conjugate during hydrolysis [3] |
| --- | --- | --- | --- | --- | --- | --- | --- | --- | --- | --- | --- | --- |
| O=C(CI)NCCN1C(=O)C=CC1=O [Linker 1, N-(2-(2,5-dioxo-2,5-dihydro-1H-pyrrol-1-yl)ethyl)-2-iodoacetamide] | enhanced stability |  |  |  |  |  |  |  |  |  |  |  |
| CC[C@H](C)[C@H](NC(=O)[C@H](Cc1ccccc1)NC(=O)[C@H](CCC(=O)O)NC(=O)[C@H](CCCCN)NC(=O)[C@H](C)NC(=O)[C@H](C)NC(=O)[C@H](CCC(N)=O)NC(=O)[C@H](CCC(=O)O)NC(=O)[C@H](CCC(=O)O)NC(=O)[C@H](CC(C)C)NC(=O)[C@H](Cc1ccc(O)cc1)NC(=O)[C@H](CO)NC(=O)[C@H](CO)NC(=O)[C@@H](NC(=O)[C@H](CC(=O)O)NC(=O)[C@H](CO)NC(=O)[C@@H](NC(=O)[C@H](Cc1ccccc1)NC(=O)[C@@H](NC(=O)CNC(=O)[C@H](CCC(=O)O)NC(=O)C(C)(C)NC(=O)[C@@H](N)Cc1c[nH]cn1)[C@@H](C)O)[C@@H](C)O)C(C)C)C(=O)N[C@@H](C)C(=O)N[C@@H](Cc1c[nH]c2ccccc12)C(=O)N[C@@H](CC(C)C)C(=O)N[C@H](C(=O)N[C@@H](CCCCN)C(=O)NCC(=O)NCC(=O)N1CCC[C@H]1C(=O)N[C@@H](CO)C(=O)N[C@@H](CO)C(=O)NCC(=O)N[C@@H](C)C(=O)N1CCC[C@H]1C(=O)N1CCC[C@H]1C(=O)N1CCC[C@H]1C(=O)N[C@@H](CO)C(=O)N[C@@H](CSCC(=O)NCCN1C(=O)CC(SC[C@H](NC(=O)[C@H](CO)NC(=O)[C@@H]2CCCN2C(=O)[C@@H]2CCCN2C(=O)[C@@H]2CCCN2C(=O)[C@H](C)NC(=O)CNC(=O)[C@H](CO)NC(=O)[C@H](CO)NC(=O)[C@@H]2CCCN2C(=O)CNC(=O)CNC(=O)[C@H](CC(N)=O)NC(=O)[C@H](CCSC)NC(=O)[C@H](CC(C)C)NC(=O)[C@H](Cc2c[nH]c3ccccc23)NC(=O)[C@H](CCC(N)=O)NC(=O)[C@@H](NC(=O)[C@H](Cc2ccccc2)NC(=O)[C@H](CC(=O)O)NC(=O)[C@H](CCC(N)=O)NC(=O)[C@H](C)NC(=O)[C@H](CCCNC(=N)N)NC(=O)[C@H](CCCNC(=N)N)NC(=O)[C@H](CO)NC(=O)[C@H](CC(=O)O)NC(=O)[C@H](CC(C)C)NC(=O)[C@H](Cc2ccc(O)cc2)NC(=O)[C@H](CCCCN)NC(=O)[C@H](CO)NC(=O)[C@H](Cc2ccc(O)cc2)NC(=O)[C@H](CC(=O)O)NC(=O)[C@H](CO)NC(=O)[C@@H](NC(=O)[C@H](Cc2ccccc2)NC(=O)[C@@H](NC(=O)CNC(=O)[C@H](CCC(N)=O)NC(=O)[C@H](CO)NC(=O)[C@@H](N)Cc2c[nH]cn2)[C@@H](C)O)[C@@H](C)O)C(C)C)C(N)=O)C1=O)C(N)=O)C(C)C (stereo partly shown) [Peptide 4] |  | no statistical significance | comparable potency to native GLP-1 | 4.68 ± 1.53 pM | reduced but comparable potency | no statistical significance | 607 ± 428 pM | much enhanced GLP-1 receptor activity relative to glucagon | did not result in sufficient thiosuccinimide hydrolysis | ≤ 1 h | approximately 12 hours |  |
| CC[C@H](C)[C@H](NC(=O)[C@H](Cc1ccccc1)NC(=O)[C@H](CCC(=O)O)NC(=O)[C@H](CCCCN)NC(=O)[C@H](C)NC(=O)[C@H](C)NC(=O)[C@H](CCC(N)=O)NC(=O)[C@H](CCC(=O)O)NC(=O)[C@H](CCC(=O)O)NC(=O)[C@H](CC(C)C)NC(=O)[C@H](Cc1ccc(O)cc1)NC(=O)[C@H](CO)NC(=O)[C@H](CO)NC(=O)[C@@H](NC(=O)[C@H](CC(=O)O)NC(=O)[C@H](CO)NC(=O)[C@@H](NC(=O)[C@H](Cc1ccccc1)NC(=O)[C@@H](NC(=O)CNC(=O)[C@H](CCC(=O)O)NC(=O)C(C)(C)NC(=O)[C@@H](N)Cc1c[nH]cn1)[C@@H](C)O)[C@@H](C)O)C(C)C)C(=O)N[C@@H](C)C(=O)N[C@@H](Cc1c[nH]c2ccccc12)C(=O)N[C@@H](CC(C)C)C(=O)N[C@H](C(=O)N[C@@H](CCCCN)C(=O)NCC(=O)NCC(=O)N1CCC[C@H]1C(=O)N[C@@H](CO)C(=O)N[C@@H](CO)C(=O)NCC(=O)N[C@@H](C)C(=O)N1CCC[C@H]1C(=O)N1CCC[C@H]1C(=O)N1CCC[C@H]1C(=O)N[C@@H](CO)C(=O)N[C@@H](CSCC(=O)NCCNC(=O)C(CC(=O)O)SC[C@H](NC(=O)[C@H](CO)NC(=O)[C@@H]1CCCN1C(=O)[C@@H]1CCCN1C(=O)[C@@H]1CCCN1C(=O)[C@H](C)NC(=O)CNC(=O)[C@H](CO)NC(=O)[C@H](CO)NC(=O)[C@@H]1CCCN1C(=O)CNC(=O)CNC(=O)[C@H](CC(N)=O)NC(=O)[C@H](CCSC)NC(=O)[C@H](CC(C)C)NC(=O)[C@H](Cc1c[nH]c2ccccc12)NC(=O)[C@H](CCC(N)=O)NC(=O)[C@@H](NC(=O)[C@H](Cc1ccccc1)NC(=O)[C@H](CC(=O)O)NC(=O)[C@H](CCC(N)=O)NC(=O)[C@H](C)NC(=O)[C@H](CCCNC(=N)N)NC(=O)[C@H](CCCNC(=N)N)NC(=O)[C@H](CO)NC(=O)[C@H](CC(=O)O)NC(=O)[C@H](CC(C)C)NC(=O)[C@H](Cc1ccc(O)cc1)NC(=O)[C@H](CCCCN)NC(=O)[C@H](CO)NC(=O)[C@H](Cc1ccc(O)cc1)NC(=O)[C@H](CC(=O)O)NC(=O)[C@H](CO)NC(=O)[C@@H](NC(=O)[C@H](Cc1ccccc1)NC(=O)[C@@H](NC(=O)CNC(=O)[C@H](CCC(N)=O)NC(=O)[C@H](CO)NC(=O)[C@@H](N)Cc1c[nH]cn1)[C@@H](C)O)[C@@H](C)O)C(C)C)C(N)=O)C(N)=O)C(C)C (stereo partly shown) [Peptide 5] |  | no statistical significance |  | 4.85 ± 4.29 pM |  | no statistical significance | 323 ± 187 pM |  |  |  |  | without detectable degradation |
